# Reference: US20150290200A1, “INTRACELLULAR KINASE INHIBITORS” (Pharmacyclics Inc., priority 2006, published 2015)
# Tests used:
# ITK kinase domain = molecular target: T1, ITK kinase domain (Homo sapiens, UniProt Q08881); assay: In vitro kinase assay (HITHUNTER enzyme fragment complementation), ITK; assay type: biochemical; conditions: Table 8; wild type ITK kinase domain; read-out: IC50 wild-type ITK
# T1 construct: N-terminally His-tagged ITK kinase domain (amino acids 352-617); His (N); made in house
# T1 sequence (Q08881 352-617): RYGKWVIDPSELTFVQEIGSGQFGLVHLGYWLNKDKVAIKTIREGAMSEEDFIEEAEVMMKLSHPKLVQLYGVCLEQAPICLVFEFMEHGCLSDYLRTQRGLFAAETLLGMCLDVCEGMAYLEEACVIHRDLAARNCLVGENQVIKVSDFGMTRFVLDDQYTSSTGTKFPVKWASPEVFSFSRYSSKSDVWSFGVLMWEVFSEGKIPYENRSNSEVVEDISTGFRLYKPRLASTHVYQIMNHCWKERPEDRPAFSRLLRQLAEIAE
# Experimental: Compounds were screened using the HITHUNTER™ enzyme fragment complementation method (Discoverx). Briefly, a recombinantly produced, N-terminally His-tagged ITK kinase domain (amino acids 352-617) was incubated with various concentrations of individual compounds. ATP and substrate were added, and the kinase reaction was allowed to proceed for 2-16 hours. Commercially available detection reagents were added and allowed to react for 2-4 hours. The reaction was evaluated by luminescence. Initial results were confirmed using full-length recombinant ITK protein.
# (§1) In order to confirm the mechanism by which compounds depicted herein interact with the kinase domain of Tec and EGFR kinases, we created a point mutant of the ITK kinase domain, whereby the key amino acid, namely C442 was mutated to alanine. The protein was expressed in a commercial baculovirus expression system using the manufacturer's general protocol (Invitrogen, pBlueBac). Protein was expressed and purified using standard techniques. […] While the activity of WT-ITK was inhibited by compounds depicted in this application, the same compounds had no activity towards the C442A mutant kinase domain.
# C442A-ITK kinase domain = molecular target: T2, C442A-ITK kinase domain (Homo sapiens, UniProt Q08881, C442A); assay: In vitro kinase assay, C442A point mutant of ITK kinase domain; assay type: biochemical; conditions: Table 8
# T2 construct: we created a point mutant of the ITK kinase domain; made in house; host or cells: baculovirus expression system (Invitrogen, pBlueBac)
# T2 sequence (Q08881 363-615 C442A limits assumed): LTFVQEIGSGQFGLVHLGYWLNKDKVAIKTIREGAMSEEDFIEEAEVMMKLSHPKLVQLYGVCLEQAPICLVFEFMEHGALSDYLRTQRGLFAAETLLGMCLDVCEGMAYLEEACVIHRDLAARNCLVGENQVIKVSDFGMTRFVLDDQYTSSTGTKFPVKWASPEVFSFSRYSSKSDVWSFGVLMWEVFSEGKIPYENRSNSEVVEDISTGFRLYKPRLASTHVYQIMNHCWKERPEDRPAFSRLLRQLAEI
# Description: as §1
compound,measurement,setting,value
NC(=O)c1ccc2cc(C(=O)CCN3CCOCC3)ccc2c1 [drawing 259],IC50,ITK kinase domain,11.1 nM
same,IC50,C442A-ITK kinase domain,> 10000 nM
